Source: ChEMBL document CHEMBL1201862, “PubChem BioAssay data set” (2004)
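Values below derive from 48-hour exposures of cells grown in 96-well plates, with endpoints linearly interpolated between the two concentrations bracketing the appropriate inhibition level. Here, GI50 denotes the concentration required for 50% inhibition of growth.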 Active and inactive are the calls of the source. Rule as the data show it: active = GI50 up to about 1.1 µM and inactive = higher.

Experiments:
Assay in all cases: growth of human tumour cells (NCI), 48 h
[1] = test system: LOX IMVI
[2] = test system: CCRF-CEM
[3] = test system: UACC-62
[4] = test system: IGROV-1
[5] = test system: SK-MEL-2
[6] = test system: SW-620
[7] = test system: HCC 2998
[8] = test system: HCT-116
[9] = test system: MOLT-4
[10] = test system: NCI-H460
[11] = test system: OVCAR-5
[12] = test system: SK-MEL-28
[13] = test system: HCT-15
[14] = test system: OVCAR-3
[15] = test system: SNB-19
[16] = test system: HT-29
[17] = test system: COLO 205
[18] = test system: HOP-62
[19] = test system: HOP-92
[20] = test system: UACC-257
[21] = test system: MDA-N
[22] = test system: OVCAR-8
[23] = test system: HL-60
[24] = test system: NCI/ADR-RES
[25] = test system: NCI-H23
[26] = test system: A549
[27] = test system: Hs-578T
[28] = test system: T47D
[29] = test system: BT-549
[30] = test system: OVCAR-4
[31] = test system: NCI-H522
[32] = test system: RPMI-8226
[33] = test system: SF-539
[34] = test system: K562
[35] = test system: 786-0
[36] = test system: RXF 393
[37] = test system: SK-MEL-5
[38] = test system: SNB-75
[39] = test system: PC-3
[40] = test system: DU-145
[41] = test system: CAKI-1
[42] = test system: Malme-3M
[43] = test system: U-251
[44] = test system: SF-295
[45] = test system: UO-31
[46] = test system: SN12C
[47] = test system: EKVX
[48] = test system: MCF7
[49] = test system: KM12
[50] = test system: A498
[51] = test system: SR
[52] = test system: MDA-MB-435
[53] = test system: MDA-MB-231
[54] = test system: NCI-H226
[55] = test system: ACHN
[56] = test system: SF-268
[57] = test system: M14

Measured: GI50

Cc1cc2cc3c(C)cc(=O)oc3c(C)c2o1 [TRIOXSALEN]
> 100 µM: [13]
inactive: [1] > 100 µM | [2] > 100 µM | [3] > 100 µM | [4] > 100 µM | [5] > 100 µM | [6] > 100 µM | [7] > 100 µM | [8] > 100 µM | [9] > 100 µM | [10] > 100 µM | [11] > 100 µM | [12] > 100 µM | [14] > 100 µM | [15] > 100 µM | [16] > 100 µM | [17] > 100 µM | [18] > 100 µM | [19] > 100 µM | [20] > 100 µM | [21] > 100 µM | [22] > 100 µM | [23] > 100 µM | [24] > 100 µM | [25] > 100 µM | [26] > 100 µM | [27] > 100 µM | [28] > 100 µM | [29] > 100 µM | [30] > 100 µM | [31] > 100 µM | [32] > 100 µM | [33] > 100 µM | [34] > 100 µM | [35] > 100 µM | [36] > 100 µM | [37] > 100 µM | [38] > 100 µM | [39] > 100 µM | [40] > 100 µM | [41] > 100 µM | [42] > 100 µM | [43] > 100 µM | [44] > 100 µM | [45] > 100 µM | [46] > 100 µM | [47] 90.6 µM | [48] > 100 µM | [49] > 100 µM | [50] > 100 µM | [51] > 100 µM | [52] > 100 µM | [53] > 100 µM | [54] > 100 µM | [55] > 100 µM | [56] > 100 µM | [57] > 100 µM
